Assay results taken from US11872262B2, “Means and methods for treating bacterial infections” (VIB VZW, priority 2017, dated 2024).
Converted amounts (≈) assume the structure as drawn. Residues, ends and D or L forms follow the SMILES beside them.

What was measured:
In vivo toxicity test = assay: In vivo toxicity test; set-up: species or system Swiss mice
Protocol: The procedures used in the assays were approved by the local Animal Ethical Committee and conform to international standards of animal welfare (Approval P067/2015 of the Ethical Committee of KU Leuven). […] Briefly, 5-6 week-old Swiss females were divided into […] (6 animals/group) and administered 30 mg/kg of Colpeptin1 (group A) or vehicle (physiological water pH 7.5) (group b) once a day for 18 days via IP injection. During the treatment period the clinical, physiological and behavioral parameters including body weight, food and water consumption, body condition score, home cage activity and locomotion were constantly monitored and recorded.
Three days after the last administration animals were anesthetized and blood was collected using a standard retro-orbital puncture from each animal. Next, the mice sacrificed and underwent complete necropsy with gross examination and organ weights. The organs (Heart, Liver, Spleen, kidney, bone marrow, Brain, Lung) were sampled and immersion fixed in 4% paraformaldehyde. Formalin-fixed tissues after dehydration were routinely processed and embedded in paraffin blocks for histopathological examination. 5 μm thick sections taken from these blocks (Thermo Scientific Microm HM355S microtome) were then stained with Hematoxylin and Eosin (Leica ST5010 Autostainer XL) and evaluated under a Leica DM 2500 light microscope by a board-certified veterinary pathologist. Hematology examination was performed using an automate high-resolution flow cytometer, Abbott Cell-Dyn 3700.

E coli ATCC 25922 = type: cell-based, Escherichia coli
Protocol: Gram negative bacterial strains were cultivated in Luria-Bertani (LB) broth (Difco) and gram positive bacteria strains were grown in a rich medium, brain heart infusion (BHI) broth (Difco, Sparks, MD) at 37° C. Whenever required, growth media were supplemented with appropriate antibiotic to the medium or plates. Escherichia coli DH5α was used for cloning and plasmid amplification. […] Bacterial CFU counting was done on blood agar plates (BD Biosciences). Species identification and antibiograms for all clinical isolates were performed using MALDI-TOF and VITEK® 2 automated system (bioMérieux).
The MICs of active peptides were determined via the Broth microdilution assay according to the EUCAST guideline, which were performed in 96-well polystyrene flat-bottom microtiter plates (BD Biosciences). Briefly, a single colony was inoculated into 5 mL LB medium and grown to the end-exponential growth phase in a shaking incubator at 37° C. Cultures were subsequently diluted to an OD600 of 0.002 ([…]) in fresh LB medium. 100 μL of LB medium with different concentration of peptides ranging from 100 μg/mL to 1 μg/mL were serially diluted to the sterile 96-well plate (at least 3 wells in each plate). […] A multipurpose UV/VIS plate reader at OD590 nm, 1 s shaking measured the absorbance of the growth bacteria using a Perkin Elmer spectrophotometer (1420 Multilabel Counter Victor 3).

[1] = ELISA on immobilised colpeptin1 with serum of treated animals; type: in vivo; settings: mice treated for 18 days with 30 mg/kg
Protocol: FIG. 2: Cross seeding and in vivo activity. (A) Fluorescence microscopy image of HeLa cells mixed with E. coli O157 and treated with FITC-labelled Colpeptin1 (green channel). Blue channel is DAPI, red is CellMask Deep Red plasma membrane dye. (D) Inhibitor effect of Colpeptin1 on bacterial growth in the presence of human blood serum (average and s.d. of 3 replicates). (E) ELISA on immobilised colpeptin1 using blood serum of animals treated for 18 days with 30 mg/kg colpeptin1 (3 replicates from 3 mice). […] See materials and methods for details.
Given these positive results, we then established the tolerance of the Swiss mice to the peptide by performing a dose escalation experiment. […] The parameters observed included body weight, food and water consumption, home cage activity and locomotion. […] Based on these observations, we tested the antibacterial efficacy of the colpeptin1 in a mouse bladder infection model. In this model, an inoculum of 50 μL of a 10^8 CFU/mL suspension of E. coli O157:H7 was delivered via the urethra to the bladder of healthy Swiss mice. 1 h post-infection, we administered a single injection of colpeptin1 at 10 mg/kg, either via the urethra (n=15) or intraperitoneally (n=15). 24 h after treatment, the animals were sacrificed and the bacterial titer in kidney, colon, bladder and ureter was determined by plating the macerated tissue (FIG. 2F-l).

[2] = mice, 30 mg/kg, 18 consecutive days injection
[3] = mice, 18 consecutive days of injection, Mean ± SD

## CC(C)C[C@H](NC(=O)CNC(=O)[C@H](CCCNC(=N)N)NC(=O)[C@@H]1CCCN1C(=O)[C@H](CCCNC(=N)N)NC(=O)[C@H](CCCNC(=N)N)NC(=O)[C@@H](NC(=O)[C@H](CC(C)C)NC(=O)[C@H](C)NC(=O)[C@H](CC(C)C)NC(=O)CNC(=O)[C@H](CC(C)C)NC(=O)CNC(=O)[C@@H](N)CCCNC(=N)N)C(C)C)C(=O)NCC(=O)N[C@@H](CC(C)C)C(=O)N[C@@H](C)C(=O)N[C@@H](CC(C)C)C(=O)N[C@H](C(=O)N[C@@H](CCCNC(=N)N)C(=O)N[C@@H](CCCNC(=N)N)C(=O)O)C(C)C [Peptide P2] (H-RGLGLALVRRPRGLGLALVRR-OH)
In vivo toxicity test; 6 mice, daily injections at the maximum tolerated dose for 18 days
  adverse effects on repeated dosing: without any apparent adverse effects
In vivo toxicity test; Swiss mice, intraperitoneal administration of up to 30 mg/kg
  acute adverse effects, dose escalation: no acute adverse effects
In vivo toxicity test; after 18 days dosing and 3 days recovery
  survey of the major organs: no major morphological signs of toxicity
In vivo toxicity test; [2]
  Organs weights: Brain: 0.56 ± 0.02 gr
  Organs weights: Heart: 0.20 ± 0.02 gr
  Organs weights: Kidneys: 0.58 ± 0.01 gr
  Organs weights: Liver: 1.90 ± 0.11 gr
  Organs weights: Spleen: 0.12 ± 0.01 gr
In vivo toxicity test; [3]
  BASO, Basophil absolute count: 0.24 ± 0.02
  EOS, Eosinophil absolute count: 0.14 ± 0.06
  HCT, Hematocrit: 98.87 ± 3.7
  HGB, Hemoglobin concentration: 17.8 ± 0.45
  LYM, Lymphocyte absolute count: 5.32 ± 0.52
  MCH, Mean Corpuscular Hemoglobin: 48.2 ± 0.34
  MCHC, Mean Corpuscular Hemoglobin Concentration: 53.7 ± 0.42
  MCV, Mean Corpuscular Volume: 273 ± 1.32
  MONO, Monocyte absolute count: 0.15 ± 0.05
  MPV, Mean Platelet Volume: 16.36 ± 0.2
  NEU, Neutrophil absolute count: 0.80 ± 0.06
  PCT, Plateletcrit: 0.88 ± 0.05
  PDW, Platelet Distribution Width: 49.9 ± 0.43
  PLT, Platelet or Thrombocyte count: 1595 ± 50.7
  RBC, Red Blood Cell or Erythrocyte count: 10.9 ± 0.46
  WBC, White Blood Cell or Leukocyte count: 6.89 ± 0.42
In vivo toxicity test; mouse, in vivo, ip, Swiss mice, intraperitoneal, read-out: safe concentration from escalation experiment
  MTD: 30 mg/kg
E coli ATCC 25922
  MIC: 12 µg/mL (≈ 5.22 µM)
[1]
  antibody response towards the peptide (ELISA on serum): no specific antibody response
